{
  "source": "patent US20220324909A1",
  "about": "“THERAPEUTIC PEPTIDES” (COHBAR, INC., priority 2019, published 2022)",
  "key": {"C2C12 cells [1]": {"test_system": "C2C12 cells", "assay": "ATP levels in cultured C2C12 cells (CellTiter-Glo)", "assay_type": "cell-based, mouse", "conditions": "peptide 10 μM, 3 days with readdition every 24 hours, relative to 0.1% DMSO control", "experimental": "The effect of the peptides on cellular metabolism can be assessed using an assay of ATP levels in cultured cells such as mouse myoblast cells. Peptides were initially prepared as 10 mM stock in DMSO, diluted to 1 mM in H2O, and used at a final concentration of 10 μM (0.1% DMSO). […] Lovastatin was prepared as 10 mM stock in 70% Ethanol and used at final concentration of 10 μM containing 0.1% DMSO. CellTiter-Glo® Assay kit was purchased from Promega (Madison, Wis.). […] C2C12 cells were grown in DMEM medium supplemented with 20% FBS with 100 IU/ml penicillin and 100 μg/ml streptomycin. […] C2C12 cells were seeded at 800 cells per well on 96-well plates. […] ATP levels were determined using a CellTiter-Glo Assay kit according to the manufacturer's instructions. Luminescence for each sample well on the plate was measured using a Cytation 3 plate reader (BioTek, Winooski, Vt.). Activity was calculated relative to 0.1% DMSO treated control. The relative standard deviation of the result for the 0.1% DMSO treated control was <5%. […] ATP levels for treatment with lovastatin (10 μM) were <50% of the 0.1% DMSO treated control value."}, "3T3-L1 mouse adipocytes": {"test_system": "3T3-L1 mouse adipocytes", "assay": "Free fatty acid levels in cultured 3T3-L1 mouse adipocytes and insulin dependence (Example 17)", "assay_type": "cell-based", "conditions": "isoproterenol 0.1 nM; for Free Fatty Acid Levels, Percent of Isoproterenol Control Activity No Insulin: peptide 10 μM alone, relative to isoproterenol treated cells; for Free Fatty Acid Levels, Percent of Isoproterenol Control Activity With Insulin: peptide 10 μM with 0.25 nM insulin, relative to 0.25 nM insulin treated cells"}, "C2C12 cells [2]": {"test_system": "C2C12 cells", "assay": "Glucose utilization in cultured C2C12 cells and insulin dependence", "assay_type": "cell-based, mouse", "conditions": "22 h; for Glucose Utilization, Percent of Control Activity No Insulin: peptide 10 μM alone, glucose in medium relative to untreated cells; for Glucose Utilization, Percent of Control Activity With Insulin: peptide 10 μM with 5-20 nM insulin, glucose in medium relative to insulin treated cells", "from_the_text": "The effect of the peptides on glucose homeostasis can be assessed using an assay to monitor glucose utilization by cultured cells such as mouse myotubes. […] C2C12 mouse muscle cell line was purchased from Millipore Sigma (Saint Louis, Mo.). […] Three days after plating the medium was removed and with Differentiation Medium (DMEM/low glucose (1 g/L)+2% Horse Serum+antibiotics) added. […] After 5 days of differentiation, the medium was removed from myotube cultures and replaced with Assay Medium (DMEM/low glucose (1 g/L)+antibiotics). […] Following the 5 h incubation the medium was removed and fresh Assay Medium containing compounds added; 10 μM peptide in absence or presence of 5-20 nM insulin, or 1 mM metformin as a potent stimulator of glucose utilization. […] Following 22 h incubation, conditioned medium from each well was transferred to a fresh 96-well plate. Glucose concentrations in the medium were determined using a Glucose Assay kit (Abcam; Cambridge, Mass.) according to the manufacturer's instructions; absorbance measured using a Cytation 3 plate reader at 570 nm (BioTek, Winooski, Vt.). Absorbance values were expressed as percent control activity relative to untreated treated cells (no insulin) for 10 μM peptide alone or 5-20 nM insulin treated cells (with insulin) for 10 μM peptide in presence of 5-20 nM insulin. Untreated cells were used as reference for basal glucose utilization. The relative standard deviation from plate to plate of untreated control was <10%. Metformin at 1 mM was used as a potent control for increasing glucose utilization. Glucose levels for metformin (1 mM) treatment were <10% of the untreated control value. Data are presented as averages values from 2-3 independent experiments with each data point performed in triplicate."}, "C2C12 cells [3]": {"test_system": "C2C12 cells", "assay": "Caspase 3/7 activity in C2C12 cells", "assay_type": "cell-based, mouse", "conditions": "peptide 10 μM, 24 hours, relative to 0.1% DMSO control", "experimental": "The effect of the peptides on cell death/survival can be assessed using a caspase-3/7 assay in cultured cells such as mouse myoblast cells. Peptides were initially prepared as 10 mM stock in DMSO, diluted to 1 mM in H2O, and used at a final concentration of 10 μM (0.1% DMSO). […] Staurosporine (Abcam, Cambridge, Mass.) was dissolved at 10 mM in DMSO as a stock solution. Caspase-Glo 3/7 Assay Reagent was purchased from Promega (Madison, Wis.). C2C12 cell line was purchased from American Type Culture Collection (Manassas, Va.). C2C12 cells were grown in DMEM supplemented with 20% FBS with 100 IU/ml penicillin and 100 μg/ml streptomycin. […] C2C12 cells were seeded at 4,000 cells per well on 96-well plates. […] Caspase 3/7 activity was determined using a Caspase-Glo 3/7 Assay kit according to the manufacturer's instructions. Luminescence for each sample well on the plate was measured using a Cytation 3 plate reader (BioTek, Winooski, Vt.). Activity was calculated relative to 0.1% DMSO control."}, "C2C12 cells [4]": {"test_system": "C2C12 cells", "assay": "Cell proliferation in C2C12 cells (Cyquant DNA dye binding)", "assay_type": "cell-based, mouse", "conditions": "peptide 10 μM, 72 hours with readdition every 24 hours, relative to 0.1% DMSO control", "experimental": "The effect of the peptides on cell proliferation was assessed using a DNA dye binding assay in cultured cells such as mouse myoblast cells. Peptides were initially prepared as 10 mM stock in DMSO, diluted to 1 mM in H2O, and added at a final concentration of 10 μM (0.1% DMSO). Lovastatin was used as a growth arrest control at final concentration of 10 μM. […] C2C12 cells were grown in DMEM supplemented with 20% FBS with 100 IU/ml penicillin and 100 μg/ml streptomycin. […] C2C12 cells were seeded at 800 cells per well on 96-well plates. […] Cell proliferation was determined using Cyquant Direct Nucleic Acid Stain (Thermo Fisher Scientific, Waltham, Mass.) according to the manufacturer's instructions. Fluorescence for each sample well on the plate was measured using a Cytation 3 plate reader at Ex/Em=495/535 nm (BioTek, Winooski, Vt.). Activity was calculated relative to 0.1% DMSO untreated control. The relative standard deviation for the lovastatin control was <27%. The cell proliferation for the lovastatin control was <25% of the value for untreated control."}},
  "note": "Non-standard residues stand in square brackets, D forms with d. No end group written: not given here.",
  "data": [
    {"substance": "8 (RRMMGMVFQCLCG[dA]; cysteine pairing not given here) [compound 8]", "values": [
      {"measurement": "ATP Levels, Percent of Control Activity", "setting": "C2C12 cells [1]", "value": 99.5, "unit": "%"},
      {"measurement": "Free Fatty Acid Levels, Percent of Isoproterenol Control Activity No Insulin", "setting": "3T3-L1 mouse adipocytes", "value": 106, "unit": "%"},
      {"measurement": "Free Fatty Acid Levels, Percent of Isoproterenol Control Activity With Insulin", "setting": "3T3-L1 mouse adipocytes", "value": 57.8, "unit": "%"},
      {"measurement": "Glucose Utilization, Percent of Control Activity No Insulin", "setting": "C2C12 cells [2]", "value": 90.8, "unit": "%"},
      {"measurement": "Glucose Utilization, Percent of Control Activity With Insulin", "setting": "C2C12 cells [2]", "value": 85.5, "unit": "%"},
      {"measurement": "Caspase 3/7 Activity, Percent of Control Activity", "setting": "C2C12 cells [3]", "value": 97.6, "unit": "%"},
      {"measurement": "Cell Proliferation, Percent of Control", "setting": "C2C12 cells [4]", "value": 98.1, "unit": "%"}
    ]},
    {"substance": "10 (RRMMGMVYQCLCG[dA]; cysteine pairing not given here) [compound 10]", "values": [
      {"measurement": "ATP Levels, Percent of Control Activity", "setting": "C2C12 cells [1]", "value": 100.9, "unit": "%"},
      {"measurement": "Free Fatty Acid Levels, Percent of Isoproterenol Control Activity No Insulin", "setting": "3T3-L1 mouse adipocytes", "value": 97.9, "unit": "%"},
      {"measurement": "Free Fatty Acid Levels, Percent of Isoproterenol Control Activity With Insulin", "setting": "3T3-L1 mouse adipocytes", "value": 48.7, "unit": "%"},
      {"measurement": "Glucose Utilization, Percent of Control Activity No Insulin", "setting": "C2C12 cells [2]", "value": 102.6, "unit": "%"},
      {"measurement": "Glucose Utilization, Percent of Control Activity With Insulin", "setting": "C2C12 cells [2]", "value": 76.3, "unit": "%"},
      {"measurement": "Caspase 3/7 Activity, Percent of Control Activity", "setting": "C2C12 cells [3]", "value": 96.6, "unit": "%"},
      {"measurement": "Cell Proliferation, Percent of Control", "setting": "C2C12 cells [4]", "value": 101.5, "unit": "%"}
    ]},
    {"substance": "11 (RRMMGMVAQCLCGA) [compound 11]", "values": [
      {"measurement": "ATP Levels, Percent of Control Activity", "setting": "C2C12 cells [1]", "value": 98.0, "unit": "%"},
      {"measurement": "Free Fatty Acid Levels, Percent of Isoproterenol Control Activity No Insulin", "setting": "3T3-L1 mouse adipocytes", "value": 104, "unit": "%"},
      {"measurement": "Free Fatty Acid Levels, Percent of Isoproterenol Control Activity With Insulin", "setting": "3T3-L1 mouse adipocytes", "value": 58.5, "unit": "%"},
      {"measurement": "Glucose Utilization, Percent of Control Activity No Insulin", "setting": "C2C12 cells [2]", "value": 107.2, "unit": "%"},
      {"measurement": "Glucose Utilization, Percent of Control Activity With Insulin", "setting": "C2C12 cells [2]", "value": 84.5, "unit": "%"},
      {"measurement": "Caspase 3/7 Activity, Percent of Control Activity", "setting": "C2C12 cells [3]", "value": 99.1, "unit": "%"},
      {"measurement": "Cell Proliferation, Percent of Control", "setting": "C2C12 cells [4]", "value": 88.1, "unit": "%"}
    ]},
    {"substance": "12 (RRMMGMVEQCLCG[dA]; cysteine pairing not given here) [compound 12]", "values": [
      {"measurement": "ATP Levels, Percent of Control Activity", "setting": "C2C12 cells [1]", "value": 102.6, "unit": "%"},
      {"measurement": "Free Fatty Acid Levels, Percent of Isoproterenol Control Activity No Insulin", "setting": "3T3-L1 mouse adipocytes", "value": 103, "unit": "%"},
      {"measurement": "Free Fatty Acid Levels, Percent of Isoproterenol Control Activity With Insulin", "setting": "3T3-L1 mouse adipocytes", "value": 54.6, "unit": "%"},
      {"measurement": "Glucose Utilization, Percent of Control Activity No Insulin", "setting": "C2C12 cells [2]", "value": 102.3, "unit": "%"},
      {"measurement": "Glucose Utilization, Percent of Control Activity With Insulin", "setting": "C2C12 cells [2]", "value": 84.5, "unit": "%"},
      {"measurement": "Caspase 3/7 Activity, Percent of Control Activity", "setting": "C2C12 cells [3]", "value": 105.1, "unit": "%"},
      {"measurement": "Cell Proliferation, Percent of Control", "setting": "C2C12 cells [4]", "value": 119.3, "unit": "%"}
    ]},
    {"substance": "13 (RRMMGMVFQELCG[dA]) [compound 13]", "values": [
      {"measurement": "ATP Levels, Percent of Control Activity", "setting": "C2C12 cells [1]", "value": 102.8, "unit": "%"},
      {"measurement": "Free Fatty Acid Levels, Percent of Isoproterenol Control Activity No Insulin", "setting": "3T3-L1 mouse adipocytes", "value": 105, "unit": "%"},
      {"measurement": "Free Fatty Acid Levels, Percent of Isoproterenol Control Activity With Insulin", "setting": "3T3-L1 mouse adipocytes", "value": 56.4, "unit": "%"},
      {"measurement": "Glucose Utilization, Percent of Control Activity No Insulin", "setting": "C2C12 cells [2]", "value": 104.4, "unit": "%"},
      {"measurement": "Glucose Utilization, Percent of Control Activity With Insulin", "setting": "C2C12 cells [2]", "value": 97.8, "unit": "%"},
      {"measurement": "Caspase 3/7 Activity, Percent of Control Activity", "setting": "C2C12 cells [3]", "value": 99.0, "unit": "%"},
      {"measurement": "Cell Proliferation, Percent of Control", "setting": "C2C12 cells [4]", "value": 90.0, "unit": "%"}
    ]},
    {"substance": "14 (RRMMGMVFQCLEG[dA]) [compound 14]", "values": [
      {"measurement": "ATP Levels, Percent of Control Activity", "setting": "C2C12 cells [1]", "value": 102.1, "unit": "%"},
      {"measurement": "Free Fatty Acid Levels, Percent of Isoproterenol Control Activity No Insulin", "setting": "3T3-L1 mouse adipocytes", "value": 100, "unit": "%"},
      {"measurement": "Free Fatty Acid Levels, Percent of Isoproterenol Control Activity With Insulin", "setting": "3T3-L1 mouse adipocytes", "value": 51.0, "unit": "%"},
      {"measurement": "Glucose Utilization, Percent of Control Activity No Insulin", "setting": "C2C12 cells [2]", "value": 102.4, "unit": "%"},
      {"measurement": "Glucose Utilization, Percent of Control Activity With Insulin", "setting": "C2C12 cells [2]", "value": 112.3, "unit": "%"},
      {"measurement": "Caspase 3/7 Activity, Percent of Control Activity", "setting": "C2C12 cells [3]", "value": 100.1, "unit": "%"},
      {"measurement": "Cell Proliferation, Percent of Control", "setting": "C2C12 cells [4]", "value": 97.2, "unit": "%"}
    ]}
  ]
}
